The source made the active and inactive calls. The rule behind the calls is not given here.
Experiments:
BALB/3T3 [1] = assay: Cytotoxicity against mouse BALB/3T3 cells assessed as reduction in cell viability at 10 to 50 ug/ml measured after 72 hrs; type: toxicity, cell-based; details: balb/3t3, 72 h, dose 10-50 µg/ml
B16-F10 [2] = assay: Antiproliferative activity against mouse B16-F10 cells assessed as reduction in cell viability at 50 ug/ml measured after 72 hrs by neutral red uptake assay; type: functional, cell-based; details: dose 50.0 µg/ml
B16-F10 [3] = assay: Antiproliferative activity against mouse B16-F10 cells assessed as reduction in cell number at 50 ug/ml measured after 72 hrs; type: functional, cell-based; details: dose 50.0 µg/ml
BALB/3T3 [4] = assay: Cytotoxicity against mouse BALB/3T3 cells assessed as reduction in cell viability at 10 to 50 ug/ml measured after 72 hrs by neutral red staining based analysis; type: toxicity; details: balb/3t3, 72 h, dose 10-50 µg/ml
BALB/3T3 [5] = assay: Cytotoxicity against mouse BALB/3T3 cells assessed as reduction in cell viability at 10 to 50 ug/ml measured after 72 hrs by crystal violet staining based analysis; type: toxicity; details: balb/3t3, 72 h, dose 10-50 µg/ml
B16-F10 [6] = assay: Antiproliferative activity against mouse B16-F10 cells assessed as reduction in cell viability at 10 to 50 ug/ml measured after 72 hrs; type: functional, cell-based; details: dose 10-50 µg/ml
B16-F10 [7] = assay: Antiproliferative activity against mouse B16-F10 cells assessed as reduction in cell number at 10 to 50 ug/ml measured after 72 hrs; type: functional, cell-based; details: dose 10-50 µg/ml
BALB/3T3 [8] = assay: Cytotoxicity against mouse BALB/3T3 cells assessed as reduction in cell viability at 50 ug/ml measured after 72 hrs; type: toxicity, cell-based; details: balb/3t3, 72 h, dose 50 µg/ml

Compound | Activity (BALB/3T3 [1]) | Activity (BALB/3T3 [4]) | Activity (BALB/3T3 [5]) | also measured
CCCC[Se]c1ccc(C(O)C(=O)O)cc1 (centres undefined) | Non-Toxic | – | – | Activity (B16-F10 [2]): Active; Activity (B16-F10 [3]): Active
OCC(O)c1ccc([Se]c2ccccc2)cc1 (centres undefined) | – | Toxic | Toxic | –
COC(=O)C(OC(C)=O)c1ccc([Se]c2ccccc2)cc1 (centres undefined) | – | Toxic | Toxic | –
CCCC[Se]c1ccc(C(O)C(=O)OC)cc1 (centres undefined) | Non-Toxic | – | – | Activity (B16-F10 [6]): inactive
O=C(O)C(O)c1ccc([Se]c2ccccc2)cc1 (centres undefined) | Non-Toxic | – | – | Activity (B16-F10 [7]): Active; Activity (BALB/3T3 [8]): Non-Toxic
COC(=O)C(O)c1ccc([Se]c2ccccc2)cc1 (centres undefined) | – | Toxic | Toxic | –

From ChEMBL document CHEMBL5584253, “Polyfunctionalized organoselenides: New synthetic approach from selenium-containing cyanohydrins and anti-melanoma activity” (Bioorg Med Chem Lett, 2024)
